Reference: article PMC4019635 (PLoS ONE, 2014)

Columns and labels:
[1] = tested on: human glycine α1 receptor A288G; parameters: method as in PMID 20308070; details: A288G mutation; cited from earlier work
RDLbd = molecular target: T1, RDLbd (Drosophila melanogaster, UniProt P25123); assay: cell-based
T1 sequence (P25123 45-606): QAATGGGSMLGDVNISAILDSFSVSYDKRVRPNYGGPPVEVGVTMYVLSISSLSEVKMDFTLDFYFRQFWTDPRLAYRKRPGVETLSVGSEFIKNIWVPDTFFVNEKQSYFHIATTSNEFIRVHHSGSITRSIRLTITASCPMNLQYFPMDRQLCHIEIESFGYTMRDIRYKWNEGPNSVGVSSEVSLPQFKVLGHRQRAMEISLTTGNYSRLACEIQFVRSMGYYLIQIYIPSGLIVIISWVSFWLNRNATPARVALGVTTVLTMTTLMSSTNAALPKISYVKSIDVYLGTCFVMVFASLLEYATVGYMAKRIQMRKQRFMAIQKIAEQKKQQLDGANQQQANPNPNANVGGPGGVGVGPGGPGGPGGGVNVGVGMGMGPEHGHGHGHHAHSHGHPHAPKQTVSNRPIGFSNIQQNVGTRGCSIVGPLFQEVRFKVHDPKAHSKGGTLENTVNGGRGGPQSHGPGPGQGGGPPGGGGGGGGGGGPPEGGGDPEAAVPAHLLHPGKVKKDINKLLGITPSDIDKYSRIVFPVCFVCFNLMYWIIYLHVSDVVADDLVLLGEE

RDLbdI/VA^301S = assay: cell-based; parameters: species or system Drosophila melanogaster; details: compared to wild-type / RDLbdI/V
[2] = tested on: Drosophila carrying the RDLA^301S mutation; parameters: method as in PMID 11095718; details: cited from earlier work
[3] = tested on: Drosophila carrying the P299S mutation in GluCl; parameters: method as in PMID 11095718; details: cited from earlier work
RDLbdI/V = RDLbdI/V (Drosophila melanogaster, UniProt P25123, I283V); assay: cell-based; details: for concentration at which responses failed to saturate: highest concentration usable, TACA, muscimol, β-alanine insoluble at higher concentrations
Sequence of RDLbdI/V (P25123 45-606 I283V): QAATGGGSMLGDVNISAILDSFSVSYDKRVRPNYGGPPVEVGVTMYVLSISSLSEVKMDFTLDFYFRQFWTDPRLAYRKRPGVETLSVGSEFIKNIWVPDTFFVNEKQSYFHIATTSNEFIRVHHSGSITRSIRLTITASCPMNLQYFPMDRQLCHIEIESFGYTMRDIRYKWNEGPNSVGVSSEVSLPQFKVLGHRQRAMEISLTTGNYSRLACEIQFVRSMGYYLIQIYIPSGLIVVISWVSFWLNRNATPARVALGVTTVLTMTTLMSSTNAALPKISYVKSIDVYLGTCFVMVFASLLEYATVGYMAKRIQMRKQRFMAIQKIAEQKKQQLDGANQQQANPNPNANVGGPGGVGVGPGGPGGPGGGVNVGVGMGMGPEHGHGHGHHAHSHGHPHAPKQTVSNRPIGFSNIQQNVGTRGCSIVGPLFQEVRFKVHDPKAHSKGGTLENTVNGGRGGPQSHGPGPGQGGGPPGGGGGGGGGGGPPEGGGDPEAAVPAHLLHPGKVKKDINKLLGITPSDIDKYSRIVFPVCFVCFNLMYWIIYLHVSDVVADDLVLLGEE

RDL A^301S mutation = tested on: RDL A^301S mutation; parameters: method as in PMID 2124226; details: cited from earlier work

With CC[C@H](C)[C@H]1O[C@]2(CC[C@@H]1C)C[C@@H]1C[C@@H](C/C=C(\C)[C@@H](O[C@H]3C[C@H](OC)[C@@H](O[C@H]4C[C@H](OC)[C@@H](O)[C@H](C)O4)[C@H](C)O3)[C@@H](C)/C=C/C=C3\CO[C@@H]4[C@H](O)C(C)=C[C@@H](C(=O)O1)[C@]34O)O2 [IVM, ivermectin] as the compound, how does the increase in sensitivity [1] read?
The increase in sensitivity was roughly 100 fold.

And the IC50 (RDLbd)?
The IC50 was 525 nM.

And the “resistance caused by the A^301S mutation” value (RDLbdI/VA^301S)?
Its value is 2 fold.

And the “resistance compared to the wild-type” value [2]?
The value was 3.3 fold.

What about the sensitivity change [3] of the same compound?
The sensitivity change was “ten-fold less sensitive”.

Which results are given for N#Cc1nn(-c2c(Cl)cc(C(F)(F)F)cc2Cl)c(NCc2cnccn2)c1SCF [Pyrafluprole, pyrafluprole]?
IC50 (RDLbd): 631 nM; resistance caused by the A^301S mutation (RDLbdI/VA^301S): 2 fold

With NC/C=C/C(=O)O [TACA, trans-4-aminocrotonic acid] as the compound, how does the “concentration at which responses failed to saturate” value (from here on “concentration”) (RDLbdI/V) read?
The value was 6 mM.

Which resistance (RDL A^301S mutation) does the source give for ClC1=C(Cl)[C@]2(Cl)[C@@H]3[C@@H]4C[C@@H]([C@H]5O[C@@H]45)[C@@H]3[C@@]1(Cl)C2(Cl)Cl [dieldrin] here?
The resistance was greater than 4000 fold.

For N#Cc1nn(-c2c(Cl)cc(C(F)(F)F)cc2Cl)c(N)c1[S+]([O-])C(F)(F)F (stereo not drawn) [fipronil], which IC50 (RDLbd) is on record?
Its IC50 is 331 nM.

And the “current induced when applied alone” value (RDLbdI/V; 1 nM−100 µM, no GABA, receptor variant not stated, data not shown)?
The value was “no discernible current”.

And the “resistance caused by the A^301S mutation” value (RDLbdI/VA^301S)?
Its value is 3 fold.

Which “concentration” value (RDLbdI/V) does the source give for O=C(O)C1=CCNCC1 [isoguvacine] here?
Its value is 3 mM.

For NCc1cc(=O)[nH]o1 [muscimol], which “concentration” value (RDLbdI/V) is on record?
Its value is 3 mM.

For NCCC(=O)O [β-alanine], which “concentration” value (RDLbdI/V) is on record?
The value was 10 mM.
